Source: EP1179538A1, “PEPTIDES BLOCKING RESPONSE TO CHEMICAL SUBSTANCES OR THERMAL STIMULI OR NOCICEPTOR INFLAMMATION MEDIATORS AND COMPOSITIONS CONTAINING SAID PEPTIDES” (Universidad Miguel Hernandez de Elche, priority 1999, dated 2002)
Peptide text beside a SMILES is read from it.

target: VR1 nocireceptor; assay: Blockage of capsaicin-activated ionic current in X. laevis ovocites expressing the VR1 nocireceptor (two-microelectrode voltage clamp); assay type: cell-based; settings: VR1 expressed in X. laevis ovocites; activated by capsaicin 20 µM; transmembrane voltage -80 mV; read-out: peptide concentrations that inhibited half of the VR1 response (IC50)
Text: This test comprises contacting X. laevi ovocites expressing the VR1 nocireceptor with an agonist (ligand) for said VR1 nocireceptor, for example, capsaicin, in the presence or absence of the compound to be tested, maintaining the transmembrane voltage constant at -80 mV, and detecting the inhibiting activity of said compound to be tested by measuring the agonist-activated ionic current in the presence and absence of the compound to be tested. The power and effectiveness of the inhibiting activity of the compound to be tested can be determined by obtaining the dosage-response curves. To achieve this, the magnitude of the capsaicin-activated ionic current blockage is examined in X. laevi ovocites that express the VR1 nocireceptor in the presence of the growing concentrations of the compound to be tested. The ratio of ionic current intensities in the presence and absence of the compound to be tested permits the obtention of dosage-response curves (19,20). These graphs can be adjusted to logarithmic functions to determine the maximum blockage (power) and the antagonist concentration produced by half the maximum blockage (IC50 effective).
In order to evaluate the biological activity of peptides obtained in Example 1.1 a test was developed to evaluate the power of said peptides blocking the agonist-activated ionic current in X. laevis ovocites that express the VR1 nocireceptor.
The heterologous expression of receptors in X. laevis ovocites can be carried out according to the procedure described by Ferrer-Montiel and Montal (19). […] The capsaicin agonist-activated ionic currents are recorded with the maintenance of the constant voltage technique with two microelectrodes (two-microelectrode voltage clamp) (19, 20). […] The inhibiting activity is detected by measuring the agonist -activated ionic current in the presence and absence of the peptides.
The power and effectiveness of the peptide inhibiting activity is determined by means of the obtention of dosage-response curves. […]

Point of comparison: `N=C(N)NCCC[C@H](NC(=O)[C@H](CCCNC(=N)N)NC(=O)[C@H](Cc1ccc(O)cc1)NC(=O)[C@H](Cc1ccc(O)cc1)NC(=O)[C@@H](N)CCCNC(=N)N)C(=O)N[C@@H](Cc1c[nH]c2ccccc12)C(=O)O` [SEC. ID. N1: 3, Arg-Tyr-Tyr-Arg-Arg-Trp] (H-RYYRRW-OH), IC50 ~10 µM. Against it:
- N=C(N)NCCC[C@H](NC(=O)[C@H](CCCNC(=N)N)NC(=O)[C@H](CCCNC(=N)N)NC(=O)[C@@H](N)CCCNC(=N)N)C(=O)N[C@@H](Cc1c[nH]c2ccccc12)C(=O)N[C@@H](Cc1c[nH]c2ccccc12)C(=O)O [SEC. ID. N1: 1, Arg-Arg-Arg-Arg-Trp-Trp] (H-RRRRWW-OH) — 100-fold lower, ~0.1 µM
- CC[C@H](C)[C@H](NC(=O)[C@H](Cc1c[nH]c2ccccc12)NC(=O)[C@H](Cc1c[nH]c2ccccc12)NC(=O)[C@H](CCCNC(=N)N)NC(=O)[C@@H](N)CCCNC(=N)N)C(=O)N[C@@H](CCCNC(=N)N)C(=O)O [SEC. ID. N1: 2, Arg-Arg-Trp-Trp-Ile-Arg] (H-RRWWIR-OH) — 5-fold lower, ~2 µM
